Measurements from US20250325524A1, “COMPOSITIONS AND METHODS FOR TREATING RENAL INJURY” (CASE WESTERN RESERVE UNIVERSITY, priority 2018, published 2025).
Entries after “also recorded” stand apart in the source; their conditions may differ.

Assays:
mice with ischemic AKI [1] = assay: renal IRI model: necrotic and apoptotic cell death in the outer medulla; type: in vivo
Protocol: (§1) Mice were anesthetized with isoflurane using a vaporizer and placed on a heating pad to maintain their body temperature at 37° C. Both renal arteries were identified through dorsal incisions and clamped for 20, 30, 35, or 37 minutes. Reperfusion was confirmed visually upon release of the clamps. Surgical wounds were closed, and mice were administered 1 mL of saline i.p. The mice were kept in a warm incubator until they regained consciousness and were allowed to recover with ad libitum access to food and water. […] Serum and kidney tissue were collected 24 hours after renal IRI.
To evaluate necrosis, 5-μm-thick paraffin sections were stained with H&E. Tubular injury was scored semi quantitatively according to a scoring system by a pathologist who examined at least 20 separate fields (×400) in the outer medulla, which is the zone most sensitive to ischemic injury. The scoring system was as follows: 0, no damage; 1, patchy isolated unicellular necrosis; 2, tubular necrosis <25%; 3, tubular necrosis 25-50%; and 4, tubular necrosis >50%. At least 20 consecutive high-power fields (magnification, ×400) per section were scored by two operators blind to the details of the experiment. To analyze the frequency of apoptosis, 5-μm-thick paraffin sections were subjected to terminal deoxynucleotidyl transferase-mediated dUTP nick-end labeling (TUNEL) assay (APT110; Millipore) according to the manufacturer's protocol. TUNEL-positive cells were counted in at least five separate fields (×640 magnification) in the outer medulla, and the apoptosis index (%, number of apoptosis cells/total number of cells) was calculated using GENASIS software.

[2] = test system: PGE2 receptors (EP1, EP2, EP3 and EP4) and adenosine receptor (A2A); assay: renal IRI model: PGE2 receptors (EP1-EP4) and adenosine A2A receptor levels; type: in vivo, mice
Protocol: as §1
PGE2 receptors (EP1, EP2, EP3 and EP4) and adenosine receptor (A2A) mRNA levels were determined by real-time PCR with SYBR green PCR Master Mix and the primers listed in Table 1. Their protein levels were determined by western blotting assay and immunofluorescence analysis.

[3] = stability on incubation with hepatocyte extracts; type: in vitro ADME
mice with ischemic AKI [4] = assay: renal ischemia-reperfusion injury model: renal function (serum creatinine, NGAL, KIM-1); type: in vivo; conditions: IRI-30 min, 24 hours reperfusion
Protocol: as §1
Renal function was assessed by determining the serum levels of creatinine (KB02-H1; Arbor Assays), Lipocalin-2 (NGAL; MLCN20; R&D Systems), and kidney injury molecule-1 (KIM-1; MKM100; R&D Systems) after reperfusion for 24 h.

malondialdehyde (MDA) = assay: renal IRI model: malondialdehyde (MDA) in kidney tissue; type: in vivo; conditions: IRI mice, single pre-IRI dose; vehicle peak 48% at 2 hours
Protocol: Mice were anesthetized with isoflurane using a vaporizer and placed on a heating pad to maintain their body temperature at 37° C. Both renal arteries were identified through dorsal incisions and clamped for 20, 30, 35, or 37 minutes. Reperfusion was confirmed visually upon release of the clamps. Surgical wounds were closed, and mice were administered 1 mL of saline i.p. The mice were kept in a warm incubator until they regained consciousness and were allowed to recover with ad libitum access to food and water. […]
Reactive oxygen species (ROS) levels were determined by measurement of malondialdehyde (MDA), the end product of lipid peroxidation in […]. Free MDA reacts with thiobarbituric acid (TBA) at 95° C. to generate an MDA-TBA adduct, which can be quantified colorimetrically at a wavelength of 532 nm. MDA levels were measured in kidney lysates using a lipid peroxidation (MDA) assay kit (ab118970; Abcam). Results were corrected for total protein level and are expressed as […].

[5] = test system: endogenous PGE2 levels in kidney tissue; assay: endogenous PGE2 levels in kidney tissue after i.p. injection; type: in vivo; conditions: mice
Protocol: […] Next, the kidney tissues (˜20 mg) were homogenized in 500 μL of cold PBS containing indomethacin (10 μg/mL) using a tissue homogenizer. The suspension was sonicated in an ice-water bath for 1 minute using cycles of 10 seconds of sonication with 10 seconds of cooling, and they were then centrifuged for 10 minutes at 12,000 rpm. The supernatant was collected for PGE2 assay. Protein concentrations were determined by BCA assay (23225; Thermo Scientific). The PGE2 level in the supernatant was measured using a PGE2 ELISA Kit (SKGE004B; R&D Systems) in triplicate. PGE2 levels were expressed as ng PGE2/mg protein.

[6] = test system: cAMP/AMP/adenosine signaling pathway; assay: renal IRI model: cAMP, AMP and adenosine levels; type: in vivo; conditions: IRI mice
Protocol: as §1
After reperfusion for 24 hours, kidney tissues were harvested, homogenized in 10 volumes of 0.1 M HCl, and centrifuged for 10 minutes at 12,000 rpm. The protein concentration was determined by BCA assay. cAMP levels in kidney tissues were measured using a cAMP Complete ELISA Kit (ADI-900-163; Enzo Life Science) an adenosine Assay Kit (KA4547; abnova) and high-performance liquid chromatography (HPLC).

[7] = test system: renal arterioles in the outer medulla; assay: renal vasodilatation in the outer medulla (α-SMA-positive arteriole area); type: in vivo, mice; conditions: α-SMA staining
Protocol: as §1
To quantify vasodilation, the inner arteriole area of the outer medulla was determined using α-SMA-stained sections. After counterstaining with Mayer's hematoxylin, the inner area of α-SMA-positive vessels in the outer medulla (×25) was measured using ImageJ. The results are expressed as average areas of renal arteries outer medulla.

[8] = chemical stability in aqueous solutions; type: physicochemical; conditions: over broad pH range
mice with ischemic AKI [9] = assay: renal ischemia-reperfusion injury model: renal function (serum creatinine, NGAL, KIM-1); type: in vivo; conditions: IRI mice, single pre-IRI dose
[10] = IRI mice, pretreatment, 0.5 hours, mRNA in kidney tissue
[11] = kidney tissue, in comparison to sham and to IRI mice
[12] = 5 mg/kg 1 hour before, immediately after, and 12 hours after IRI, vs IRI-vehicle

SMILES: CCCC[S+]([O-])c1sc2nc(-c3cccs3)cc(-c3ccccc3)c2c1N (centres unmarked) [SW033291]
- histologic renal injury score (mice with ischemic AKI [1]; 3 doses 5 mg/kg i.p., POD1, H&E, outer medulla): reducing
- count of TUNEL positive apoptotic cells (mice with ischemic AKI [1]; 3 doses 5 mg/kg i.p., POD1, outer medulla): reducing
- tissue congestion in the outer medulla (gross pathology) (mice with ischemic AKI [1]; 3 doses 5 mg/kg i.p., POD1, vs IRI-vehicle): ameliorated
- renal injury (histopathology, tubular injury) (mice with ischemic AKI [1]; 3 doses 5 mg/kg, POD1, 5 mg/kg): markedly alleviated renal injury; also recorded: more effective than systemic administration of either exogenous PGE1 or PGE2
- increase of A2A receptor over baseline [2, 10]: 1.6 fold
- increase of EP4 receptor over baseline [2, 10]: 2.4 fold
- EP1 receptor mRNA ([2]; kidney tissue, IRI mice): without effecting
- EP2 receptor mRNA ([2]; kidney tissue, IRI mice): without effecting
- EP3 receptor mRNA ([2]; kidney tissue, IRI mice): without effecting
- increase of EP4 receptor mRNA and protein levels [2, 11]: up to 2.3 fold
- levels of the adenosine A2A receptor protein [2, 11]: induced
- chemical stability when incubated with hepatocyte extracts [3]: chemically stable
- serum KIM-1 (mice with ischemic AKI [4]; [12]): significantly reducing
- serum NGAL (mice with ischemic AKI [4]; [12]): significantly reducing
- serum creatinine (mice with ischemic AKI [4]; [12]): significantly reducing
- renal protection from IRI (serum NGAL, creatinine, KIM-1) (mice with ischemic AKI [4]; 3 doses of 5 mg/kg): markedly protected kidney from IRI
- increase of malondialdehyde (MDA) above baseline (malondialdehyde (MDA)): 14%
- level of PGE2 in kidney tissue, time course ([5]; 5 mg/kg i.p., 1 and 3 hours): peaked at 1 hour at nearly twice as high as at baseline
- endogenous PGE2 levels in kidney tissue ([5]; 3 hours after i.p. 2.5 or 5 mg/kg, vs vehicle): in dose-dependent fashion, upregulated
- levels of adenosine in the kidney [6]: increased
- levels of serum adenosine [6]: significantly increased
- AMP level in kidney tissue ([6]; decrease after IRI vs sham): substantially reversed
- cAMP level in kidney tissue ([6]; decrease after IRI vs sham): substantially reversed
- renal arteriole area in the outer medulla ([7]; IRI mice): significantly increased
- renal arteriole area in the outer medulla ([7]; normal mice): increased
- chemical stability in aqueous solutions [8]: chemically stable
- induction of KIM-1 (time course) (mice with ischemic AKI [9]): notably effective blockade of induction
- induction of creatinine (time course) (mice with ischemic AKI [9]): notably effective blockade of induction
- reduction of peak induction of NGAL (mice with ischemic AKI [9]; peak at 12 hours): 20%
